Measured values taken from paper PMC11111691, “Cystine-knot peptide inhibitors of HTRA1 bind to a cryptic pocket within the active site region” (Nature Communications, 2024).
Positions of bridges follow the written chain, without caps; N, C: chain ends. Residues, ends and D or L forms follow the SMILES beside them.

Legend:
[1] = target: T1, HTRA1^PD(SA) (Homo sapiens, UniProt Q92743, S328A); experiment: SPR binding kinetics to HTRA1^PD(SA); conditions: mean ± S.D. of three or more independent experiments; for koff / kon: SPR Biacore S200, 25 °C, single cycle kinetics, 1:1 Langmuir model; for Kd: SPR, calculated from kon and koff, CPI up to 10 µM
T1 construct: The protease domains of human HTRA1 (HTRA1^PD; D161-K379); made in house; host or cells: E. coli
Procedure: Surface plasmon resonance (SPR) experiments were performed using a Biacore S200 instrument at 25 °C. His-tagged HTRA proteins were captured on a CM5 sensor chip using the His-capture kit (GE Healthcare). Protein concentrations used for immobilization were as follows; HTRA1^PD(SA), HTRA1^PD and HTRA1^PD-ABP 2 µg/ml with 60-s injections at 10 µl/min, HTRA2^PD/PDZ, HTRA3^PD/PDZ, and HTRA4^PD/PDZ 4 µg/ml with 60-s injections at 10 µl/min. Approximate immobilization levels of HTRA proteins were as follows; HTRA1^PD(SA) 700 RU, HTRA1^PD 900 RU, HTRA1^PD-ABP 900 RU, HTRA2^PD/PDZ 500 RU, HTRA3^PD/PDZ 500 RU, HTRA4^PD/PDZ 500 RU. All CKPs were prepared in HBS-EP buffer (0.01 M HEPES pH 7.4, 0.15 M NaCl, 3 mM EDTA, 0.005% v/v Surfactant P20). All CKP concentrations were injected for 120 s at a flow rate of 30 μl/min. A reference channel was subtracted from the HTRA-captured channel.
Binding kinetics of peptides to HTRA1^PD(SA) were determined by flowing six serial three-fold dilutions of peptide over the HTRA1^PD(SA) immobilized surface using a single cycle kinetics model. CKP maximum concentrations were as follows: 1A7, 1A8, 1C10, 2D5, and 3A7, 300 nM; 1G10-ENI and 1D3-ENI, 100 nM; 3B3, 3000 nM; and CPI, 10,000 nM. Data were analyzed using GE BIA evaluation software using a 1:1 Langmuir binding model. The KD values, calculated from the determined kon and koff values, were the mean ± S.D. of 3–4 independent experiments.

[2] = target: T2, HTRA1^FL (Homo sapiens, UniProt Q92743); experiment: HTRA1^FL enzyme inhibition assay with synthetic substrate H2-OPT; format: biochemical
T2 construct: Human full-length HTRA1 (HTRA1^FL, Q23-P480); made in house; host or cells: Trichoplusia ni cells
Procedure: Assays with the fluorescence-quenched synthetic substrate Mca-IRRVSYSFK(Dnp)K (H2-OPT)[38],[60] were carried out essentially as described. CKP stock solutions in DMSO were diluted in TNC buffer (dilution series for IC50 determinations, or final concentration of 2 µM for selectivity assay or as indicated for HTRA1/4 mutants) and incubated with enzymes in 96-well black optical bottom plates for 60 min at 37 °C. For selectivity experiments we used the 7mer-ABP as inhibitor, which was incubated with the proteases for 15 min at 37 °C. A 10 mM stock solution of H2-OPT in DMSO was diluted with water, prewarmed at 37 °C and then added to the CKP-enzyme mixtures. The final concentrations in the reaction mixtures were: 1 nM HTRA1^FL, 3 nM HTRA1^PD/PDZ, 1 nM HTRA1^PD, 1 nM HTRA2^PD/PDZ, 3 nM HTRA3^FL, 60 nM HTRA3^PD/PDZ, 6 nM HTRA4^FL, 1 µM HTRA4^PD/PDZ, 1 nM mouse HTRA1^PD, 25 nM HTRA1^PD-A202Y, 1 µM HTRA4^PD/PDZ-Y200A, 0.5 mM 7mer-ABP, 5 µM H2-OPT, and 0.25% DMSO. The kinetics of substrate cleavage was measured at 37 °C on a SpectraMax M5 microplate reader with excitation of 328 nm and emission of 393 nm. The determined initial rates of cleavage were expressed as percent of control (DMSO control) after subtracting the baseline rates (without enzyme). IC50 values were determined by Sigmoidal 4PL modeling of multiple data points from serial dilutions of CKPs using Prism 9 software (GraphPad). For selectivity assays with HTRA1-4^PD/PDZ constructs, the specific activities of the enzymes and enzyme:CKP inhibitor ratios were as follows: HTRA1^PD/PDZ, 12560 mRFU/min/nM – 1:667; HTRA2^PD/PDZ, 32300 mRFU/min/nM – 1:2000; HTRA3^PD/PDZ, 962 mRFU/min/nM – 1:33; HTRA4^PD/PDZ, 18 mRFU/min/nM – 1:2.

T1 sequence (Q92743 161-379 S328A): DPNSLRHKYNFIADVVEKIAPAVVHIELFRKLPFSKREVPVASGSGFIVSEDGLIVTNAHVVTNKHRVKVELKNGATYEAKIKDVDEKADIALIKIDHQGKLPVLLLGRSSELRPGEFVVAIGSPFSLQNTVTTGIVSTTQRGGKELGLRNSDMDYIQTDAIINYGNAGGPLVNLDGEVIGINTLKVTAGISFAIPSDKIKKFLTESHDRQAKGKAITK
T2 sequence (Q92743 23-480): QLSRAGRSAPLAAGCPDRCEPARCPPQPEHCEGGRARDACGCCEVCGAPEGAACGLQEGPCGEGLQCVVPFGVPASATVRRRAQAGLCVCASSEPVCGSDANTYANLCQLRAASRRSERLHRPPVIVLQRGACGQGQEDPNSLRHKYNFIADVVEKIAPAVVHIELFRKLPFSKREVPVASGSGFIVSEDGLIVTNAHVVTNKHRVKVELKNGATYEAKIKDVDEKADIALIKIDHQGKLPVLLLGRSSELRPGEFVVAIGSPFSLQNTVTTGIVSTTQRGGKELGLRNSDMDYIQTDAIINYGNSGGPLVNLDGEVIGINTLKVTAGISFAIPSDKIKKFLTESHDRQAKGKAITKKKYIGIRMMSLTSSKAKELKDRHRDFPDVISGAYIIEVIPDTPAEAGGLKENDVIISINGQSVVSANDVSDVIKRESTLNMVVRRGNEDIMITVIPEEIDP

Structure (SMILES) | koff [1] [s-1 x10-4] | kon [1] | Kd [1] [nM] | IC50 [2] [nM]
CC[C@H](C)[C@H](NC(=O)[C@@H]1CCCN1C(=O)[C@H](CC(=O)O)NC(=O)[C@H](C)NC(=O)[C@@H](N)Cc1c[nH]cn1)C(=O)N[C@H]1CSSC[C@@H]2NC(=O)[C@H](Cc3ccccc3)NC(=O)[C@H](Cc3c[nH]c4ccccc34)NC(=O)[C@H](C)NC(=O)CNC(=O)[C@H](CO)NC(=O)[C@@H]3CSSC[C@@H](C(=O)NCC(=O)N4CCC[C@H]4C(=O)NCC(=O)N[C@@H](Cc4c[nH]c5ccccc45)C(=O)N[C@@H](CCCNC(=N)N)C(N)=O)NC(=O)[C@H](CO)NC(=O)[C@H](Cc4c[nH]c5ccccc45)NC(=O)[C@H]([C@@H](C)O)NC(=O)[C@H](C)NC(=O)[C@H](Cc4ccc(O)cc4)NC(=O)[C@H](Cc4ccc(O)cc4)NC(=O)[C@H](CSSC[C@H](NC(=O)[C@@H]4CCCN4C(=O)[C@H](CCCCN)NC(=O)[C@H](CC(N)=O)NC1=O)C(=O)N[C@@H](CCCCN)C(=O)N[C@@H]([C@@H](C)O)C(=O)N[C@@H](Cc1c[nH]cn1)C(=O)N[C@@H](CC(=O)O)C(=O)N[C@@H](CC(=O)O)C(=O)N3)NC(=O)[C@H](C)NC(=O)[C@H](CCC(N)=O)NC2=O [1A7] (H-HADPICNKPCKTHDDCSGAWFCQACYYATWSCGPGWR-NH2; disulfide 6-22, 10-25, 16-32) | 6.5 ± 0.7 | 9.4 ± 1.3 M-1 s-1 x104 | 7 ± 0.5 | –
CC[C@H](C)[C@H](NC(=O)[C@H](CCC(N)=O)NC(=O)[C@H](CCCNC(=N)N)NC(=O)[C@H](CC(C)C)NC(=O)CNC(=O)[C@H](Cc1c[nH]c2ccccc12)NC(=O)CNC(=O)[C@@H]1CSSC[C@@H]2NC(=O)[C@H](CC(=O)O)NC(=O)[C@H](CC(=O)O)NC(=O)[C@H](Cc3c[nH]cn3)NC(=O)[C@H]([C@@H](C)O)NC(=O)[C@H](CC(=O)O)NC(=O)[C@@H]3CSSC[C@H](NC(=O)[C@H]([C@@H](C)O)NC(=O)[C@H](CCC(N)=O)NC(=O)[C@H](CSSC[C@H](NC(=O)[C@@H](NC(=O)[C@@H]4CCCN4C(=O)[C@H](CC(=O)O)NC(=O)[C@H](C)NC(=O)[C@@H](N)Cc4c[nH]cn4)[C@@H](C)CC)C(=O)N[C@@H](CC(N)=O)C(=O)N[C@@H](CCCCN)C(=O)N4CCC[C@H]4C(=O)N3)NC(=O)[C@H](Cc3ccccc3)NC(=O)[C@H](Cc3c[nH]c4ccccc34)NC(=O)[C@H](C)NC(=O)CNC(=O)[C@H](CO)NC2=O)C(=O)N[C@@H](Cc2ccc(O)cc2)C(=O)N[C@@H](Cc2ccc(O)cc2)C(=O)N[C@@H](C)C(=O)N[C@@H]([C@@H](C)O)C(=O)N[C@@H](Cc2c[nH]c3ccccc23)C(=O)N[C@@H](CO)C(=O)N1)C(=O)N[C@@H](CC(=O)O)C(N)=O [1A8.K11D] (H-HADPICNKPCDTHDDCSGAWFCQTCYYATWSCGWGLRQID-NH2; disulfide 6-22, 10-25, 16-32) | – | – | – | 1.2 ± 0.4
CC[C@H](C)[C@H](NC(=O)[C@@H]1CCCN1C(=O)[C@H](CC(=O)O)NC(=O)[C@H](C)NC(=O)[C@@H](N)Cc1c[nH]cn1)C(=O)N[C@H]1CSSC[C@@H]2NC(=O)[C@H](Cc3ccccc3)NC(=O)[C@H](Cc3c[nH]c4ccccc34)NC(=O)[C@H](C)NC(=O)CNC(=O)[C@H](CO)NC(=O)[C@@H]3CSSC[C@@H](C(=O)NCC(=O)N4CCC[C@H]4C(=O)NCC(=O)N[C@@H](CCCNC(=N)N)C(=O)N[C@@H](Cc4ccc(O)cc4)C(N)=O)NC(=O)[C@H](CO)NC(=O)[C@H](Cc4c[nH]c5ccccc45)NC(=O)[C@H]([C@@H](C)O)NC(=O)[C@H](C)NC(=O)[C@H](Cc4ccc(O)cc4)NC(=O)[C@H](Cc4ccc(O)cc4)NC(=O)[C@H](CSSC[C@H](NC(=O)[C@@H]4CCCN4C(=O)[C@H](CCCCN)NC(=O)[C@H](CC(N)=O)NC1=O)C(=O)N[C@@H](CCCCN)C(=O)N[C@@H]([C@@H](C)O)C(=O)N[C@@H](Cc1c[nH]cn1)C(=O)N[C@@H](CC(=O)O)C(=O)N[C@@H](CC(=O)O)C(=O)N3)NC(=O)[C@H](C)NC(=O)[C@H](CCC(N)=O)NC2=O [1C10] (H-HADPICNKPCKTHDDCSGAWFCQACYYATWSCGPGRY-NH2; disulfide 6-22, 10-25, 16-32) | 4.7 ± 0.1 | 7.7 ± 2.4 M-1 s-1 x104 | 6.5 ± 2.2 | –
CC[C@H](C)[C@H](NC(=O)[C@@H]1CCCN1C(=O)[C@H](CC(=O)O)NC(=O)[C@H](C)NC(=O)[C@@H](N)Cc1c[nH]cn1)C(=O)N[C@H]1CSSC[C@@H]2NC(=O)[C@H](Cc3ccccc3)NC(=O)[C@H](Cc3c[nH]c4ccccc34)NC(=O)[C@H](C)NC(=O)CNC(=O)[C@H](CO)NC(=O)[C@@H]3CSSC[C@@H](C(=O)N[C@@H](CCC(N)=O)C(=O)N[C@@H](Cc4c[nH]c5ccccc45)C(=O)N4CCC[C@H]4C(=O)N4CCC[C@H]4C(=O)N[C@@H](CCCNC(=N)N)C(=O)N[C@@H](Cc4c[nH]cn4)C(=O)N[C@@H](CCCNC(=N)N)C(=O)N[C@@H](CC(=O)O)C(N)=O)NC(=O)[C@H](CO)NC(=O)[C@H](Cc4c[nH]c5ccccc45)NC(=O)[C@H]([C@@H](C)O)NC(=O)[C@H](C)NC(=O)[C@H](Cc4ccc(O)cc4)NC(=O)[C@H](Cc4ccc(O)cc4)NC(=O)[C@H](CSSC[C@H](NC(=O)[C@@H]4CCCN4C(=O)[C@H](CCCCN)NC(=O)[C@H](CC(N)=O)NC1=O)C(=O)N[C@@H](CCCCN)C(=O)N[C@@H]([C@@H](C)O)C(=O)N[C@@H](Cc1c[nH]cn1)C(=O)N[C@@H](CC(=O)O)C(=O)N[C@@H](CC(=O)O)C(=O)N3)NC(=O)[C@H]([C@@H](C)O)NC(=O)[C@H](CCC(N)=O)NC2=O [2D5] (H-HADPICNKPCKTHDDCSGAWFCQTCYYATWSCQWPPRHRD-NH2; disulfide 6-22, 10-25, 16-32) | 1.0 ± 0.1 | 10.5 ± 0.9 M-1 s-1 x104 | 0.94 ± 0.12 | –
CC[C@H](C)[C@H](NC(=O)[C@@H]1CCCN1C(=O)[C@H](CC(=O)O)NC(=O)[C@H](C)NC(=O)[C@@H](N)Cc1c[nH]cn1)C(=O)N[C@H]1CSSC[C@@H]2NC(=O)[C@H](Cc3ccccc3)NC(=O)[C@H](Cc3c[nH]c4ccccc34)NC(=O)[C@H](C)NC(=O)CNC(=O)[C@H](CO)NC(=O)[C@@H]3CSSC[C@@H](C(=O)NCC(=O)N4CCC[C@H]4C(=O)N[C@@H](Cc4ccc(O)cc4)C(=O)N[C@H](C(=O)NCC(N)=O)C(C)C)NC(=O)[C@H](CCCNC(=N)N)NC(=O)[C@H](Cc4c[nH]c5ccccc45)NC(=O)[C@H](CC(N)=O)NC(=O)[C@H](C)NC(=O)[C@H](Cc4ccccc4)NC(=O)[C@H](Cc4ccc(O)cc4)NC(=O)[C@H](CSSC[C@H](NC(=O)[C@@H]4CCCN4C(=O)[C@H](CCCCN)NC(=O)[C@H](CC(N)=O)NC1=O)C(=O)N[C@@H](CCCCN)C(=O)N[C@@H]([C@@H](C)O)C(=O)N[C@@H](Cc1c[nH]cn1)C(=O)N[C@@H](CC(=O)O)C(=O)N[C@@H](CC(=O)O)C(=O)N3)NC(=O)[C@H](C)NC(=O)[C@H](CCC(N)=O)NC2=O [3A7] (H-HADPICNKPCKTHDDCSGAWFCQACYFANWRCGPYVG-NH2; disulfide 6-22, 10-25, 16-32) | 2.8 ± 0.2 | 4.5 ± 0.3 M-1 s-1 x104 | 6.2 ± 0.2 | –
